12 compounds from ChEMBL document CHEMBL3046642, “17-Oximino-5-androsten-3-yl esters: synthesis, antiproliferative activity, acute toxicity, and effect on serum androgen level” (Med Chem Res, 2011) can be followed below.

The subject of data set [1] is DU-145. Put plainly: Growth inhibition of Homo sapiens (human) DU145 cells at 2 ug/ml after 48 hr by MTT assay. It is filed as functional. The following applies: for inhibition of growth at 2 µg/mL: DU-145, 48 h, read-out: GI. Background: Tetrazolium assays rely on reduction of a dye to a coloured formazan, in cell work by metabolically active cells.
The next data set deals with Rattus norvegicus. Put plainly: Inhibition of 5alpha-reductase in Rattus norvegicus Sprague-Dawley (rat) assessed as increase in serum testosterone at 40 mg/kg, ip after 6 hr by ELISA. The data set is classed as functional, organism-based. The arrangement: dose 40 mg/kg. (In an ELISA, binding on a coated surface is turned into a signal by an enzyme label.)
The nature of data set [2]: Cytotoxicity against Mus musculus Balb/c (mouse) macrophages after 24 hr by MTT assay. The data set is classed as cell-based, Macrophage. The conditions noted are these: read-out: LC50.
Data set [3] concerns DU-145. Put plainly: Growth inhibition of Homo sapiens (human) DU145 cells at 0.5 ug/ml after 48 hr by MTT assay. It is filed as functional. The conditions noted are these: for inhibition of growth at 0.5 µg/mL: DU-145, 48 h, read-out: GI.
Data set [4] concerns DU-145. Put plainly: Cytotoxicity against Homo sapiens (human) DU145 cells after 48 hr by MTT assay. The data set is classed as functional, cell-based. The conditions noted are these: for pIC50: Homo sapiens, DU-145, 48 h, read-out: IC50.
For data set [5], the system named is DU-145. Put plainly: Growth inhibition of Homo sapiens (human) DU145 cells at 1 ug/ml after 48 hr by MTT assay. It is filed as functional. The conditions noted are these: for inhibition of growth at 1 µg/mL: DU-145, 48 h, read-out: GI.
Data set [6] has as its system DU-145. Put plainly: Growth inhibition of Homo sapiens (human) DU145 cells at 5 ug/ml after 48 hr by MTT assay. The conditions noted are these: for inhibition of growth at 5 µg/mL: DU-145, 48 h, read-out: GI. The data set is classed as functional.
Data set [7] deals with DU-145. Put plainly: Growth inhibition of Homo sapiens (human) DU145 cells at 0.01 ug/ml after 48 hr by MTT assay. The data set is classed as functional. The conditions noted are these: for inhibition of growth at 0.01 µg/mL: DU-145, 48 h, read-out: GI.

For orientation: pIC50 means −log10 of the IC50, conventionally taken in molar units.

Structures are written as SMILES. pIC50: −log10 of the molar value. The source made the active and inactive calls. No cut-off for these calls is given here.

In the case of `COc1ccc(C(=O)O[C@H]2CC[C@@]3(C)C(=CC[C@@H]4[C@@H]3CC[C@]3(C)/C(=N/O)CC[C@@H]43)C2)cc1`, the inhibition of growth at 2 µg/mL with DU-145 [1] was 65.6%. The inhibition entry in the data set with Rattus norvegicus is “inactive”. The CC50 at 24 h in data set [2] is 14 µM. Moreover, the inhibition of growth at 0.5 µg/mL with DU-145 [3] is 51.4%. The pIC50 in the data set on DU-145 [4] is 5.27. The inhibition of growth at 1 µg/mL in the data set with DU-145 [5] was found to be 59.2%. Moreover, in the data set on DU-145 [6], the inhibition of growth at 5 µg/mL is 69.5%. For the same compound, in the data set with DU-145 [7], the inhibition of growth at 0.01 µg/mL was found to be 30.7%.
As to `C[C@]12CC[C@H](OC(=O)c3ccccc3)CC1=CC[C@@H]1[C@@H]2CC[C@]2(C)/C(=N/O)CC[C@@H]12`, in the data set with Rattus norvegicus, the inhibition result is “Active”. Moreover, in data set [2], the CC50 at 24 h amounted to 89.4 µM. Further, in the data set on DU-145 [4], the pIC50 is 5.42. Further, the inhibition of growth at 5 µg/mL in the data set on DU-145 [6] was 91.1%.
In the case of `C[C@]12CC[C@H](OC(=O)COc3ccccc3)CC1=CC[C@@H]1[C@@H]2CC[C@]2(C)/C(=N/O)CC[C@@H]12`, in the data set on Rattus norvegicus, the inhibition entry is “Active”. Also, the CC50 at 24 h in data set [2] came to 89 µM. For the same compound, the pIC50 in the data set with DU-145 [4] was 5.20.
Turning to `C[C@]12CC[C@H](OC(=O)CCl)CC1=CC[C@@H]1[C@@H]2CC[C@]2(C)/C(=N/O)CC[C@@H]12`, the inhibition of growth at 2 µg/mL in the data set with DU-145 [1] is 56%. Besides, the inhibition entry with Rattus norvegicus is “Active”. For the same compound, in data set [2], the CC50 at 24 h was 28 µM. For the same compound, the inhibition of growth at 0.5 µg/mL with DU-145 [3] was determined as 55%. Besides, in the data set on DU-145 [4], the pIC50 is 5.32. In the data set with DU-145 [5], the inhibition of growth at 1 µg/mL came out at 56%. The inhibition of growth at 5 µg/mL with DU-145 [6] is 59.2%. Besides, the inhibition of growth at 0.01 µg/mL in the data set on DU-145 [7] came out at 53%.
As to `C[C@]12CC[C@H](OC(=O)c3ccc([N+](=O)[O-])cc3)CC1=CC[C@@H]1[C@@H]2CC[C@]2(C)/C(=N/O)CC[C@@H]12`, in the data set on Rattus norvegicus, the inhibition entry is “Active”. Further, in data set [2], the CC50 at 24 h was found to be 19.5 µM. Further, the pIC50 in the data set on DU-145 [4] was 5.51. The inhibition of growth at 5 µg/mL with DU-145 [6] was determined as 81.5%.
As to `C[C@]12CC[C@H](OC(=O)c3ccc(N)cc3)CC1=CC[C@@H]1[C@@H]2CC[C@]2(C)/C(=N/O)CC[C@@H]12`, in the data set on Rattus norvegicus, the inhibition result was “Active”. Besides, the CC50 at 24 h in data set [2] was 29.4 µM. Moreover, the pIC50 with DU-145 [4] is 5.43. Moreover, the inhibition of growth at 5 µg/mL with DU-145 [6] was 91%.
As for `C[C@]12CC[C@H](OC(=O)Cc3ccccc3)CC1=CC[C@@H]1[C@@H]2CC[C@]2(C)/C(=N/O)CC[C@@H]12`, the “growth inhibition (GI)” value in the data set with DU-145 [1], with DU-145 [3], with DU-145 [5], in the data set on DU-145 [6] and in the data set on DU-145 [7] was “inactive” each time. For the same compound, the inhibition result with Rattus norvegicus was “Active”. The CC50 at 24 h in data set [2] turned out to be 11.8 µM. Further, the pIC50 in the data set on DU-145 [4] was 5.19.
On to `Cc1ccc(C(=O)O[C@H]2CC[C@@]3(C)C(=CC[C@@H]4[C@@H]3CC[C@]3(C)/C(=N/O)CC[C@@H]43)C2)cc1`, for which, in the data set on Rattus norvegicus, the inhibition entry is “Active”. Moreover, the CC50 at 24 h in data set [2] was determined as 22 µM. Further, the pIC50 in the data set with DU-145 [4] was 5.64. Also, the inhibition of growth at 5 µg/mL with DU-145 [6] turned out to be 92.9%.
Turning to `C[C@]12CC[C@H](O)CC1=CC[C@@H]1[C@@H]2CC[C@]2(C)/C(=N/O)CC[C@@H]12`, the “growth inhibition (GI)” value in the data set on DU-145 [1], in the data set with DU-145 [3], in the data set with DU-145 [5], in the data set on DU-145 [6] and in the data set on DU-145 [7] was “inactive” throughout. For the same compound, in the data set with Rattus norvegicus, the inhibition entry was “Active”. Further, the IC50 result with DU-145 [4] (du-145) is reported as “Not Active”.
As to `C[C@]12CC[C@H](OC(=O)c3ccc(O)cc3)CC1=CC[C@@H]1[C@@H]2CC[C@]2(C)/C(=N/O)CC[C@@H]12`, in the data set on Rattus norvegicus, the inhibition entry is “inactive”. For the same compound, in data set [2], the CC50 at 24 h stood at 22 µM. For the same compound, in the data set on DU-145 [4], the pIC50 was 5.54. The inhibition of growth at 5 µg/mL in the data set on DU-145 [6] stood at 91.5%.
Turning to `C[C@]12CC[C@H](OC(=O)c3ccc(Cl)cc3)CC1=CC[C@@H]1[C@@H]2CC[C@]2(C)/C(=N/O)CC[C@@H]12`, the inhibition entry in the data set with Rattus norvegicus is “Active”. The CC50 at 24 h in data set [2] is 24 µM. Further, the pIC50 with DU-145 [4] is 5.47. Besides, the inhibition of growth at 5 µg/mL in the data set with DU-145 [6] was 84.5%.
For `CC(C)(C)NC(=O)[C@H]1CC[C@H]2[C@@H]3CC[C@H]4NC(=O)C=C[C@]4(C)[C@H]3CC[C@]12C` [FINASTERIDE], the inhibition of growth at 2 µg/mL in the data set on DU-145 [1] is 36%. Further, in the data set on Rattus norvegicus, the inhibition entry is “Active”. Also, in data set [2], the CC50 at 24 h was determined as 28.2 µM. Besides, the inhibition of growth at 5 µg/mL in the data set with DU-145 [6] came out at 78.5%. In addition, the inhibition of growth at 0.01 µg/mL in the data set on DU-145 [7] came out at 5%.
